Here are results for twelve compounds from PubChem BioAssay (NCI).

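How tested: cells in 96-well plates exposed to compound for 48 hours at five concentrations. Abbreviation: GI50, concentration required for 50% inhibition of growth. Definition used: TGI = concentration required for complete inhibition of growth.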

What all share (test): DTP human tumour cell line panel, 48 h
In assay [1] the test system is SK-MEL-28 melanoma.
The subject of assay [2] is UO-31 renal.
In assay [3] the test system is OVCAR-4 ovarian.
The subject of assay [4] is SF-295 CNS.
In assay [5] the test system is NCI-H23 lung.
Assay [6] concerns HL-60(TB) leukemia.
Assay [7] relates to UACC-257 melanoma.
Assay [8] deals with 786-0 renal.
Assay [9] deals with COLO 205 colon.
Assay [10] deals with NCI/ADR-RES ovarian.

`Cc1cnc2c(C)ccc([N+](=O)[O-])c2c1NCCCN(C)C`: the TGI in [1], in [2], in assay [3], in [4], in [5] and in [6] was above 100 µM each time. Moreover, the TGI in [7], in assay [8] and in [9] was above 100 µM in each case.
On to `Cc1ccc(-[n+]2c3cc(N)c(C)cc3nc3cc(C)c(Nc4ccccc4)cc32)cc1`, for which the GI50 is 0.266 µM in assay [1]; 0.27 µM in [2]; 0.333 µM in assay [3]; 0.0646 µM in [4]; 0.102 µM in assay [6]; 0.242 µM in assay [7]. The GI50 in assay [8] was 0.2 µM; in assay [9], 0.0461 µM. In addition, the TGI stood at 1.33 µM in assay [1]; 1.03 µM in assay [2]; 1.59 µM in assay [3]; 0.181 µM in assay [4]; 0.482 µM in assay [6]; 0.952 µM in assay [7]. Also, the TGI in assay [8] was found to be 0.644 µM; in assay [9] it was 0.326 µM.
Take `Nn1c(-c2ccccc2)nc2ccc(Br)cc2c1=O`: the TGI was above 100 µM in [1]; above 100 µM in [2]; 86.7 µM in assay [3]; above 100 µM in [4]; above 100 µM in assay [5]; 76.8 µM in assay [6]. Besides, the TGI in assay [7], in [8] and in assay [9] was above 100 µM each time.
As to `CCOC(=O)c1c2c(n3ccc(NC(=O)CCN4CCCC4)cc13)C(=O)c1ncccc1C2=O`, the GI50 was 16.1 µM in assay [1]; 0.724 µM in assay [2]; 1.1 µM in [4]; 1.07 µM in assay [6]; 1.27 µM in [10]; 13.8 µM in [7]. Further, the GI50 in [8] was 0.214 µM. Also, the TGI in assay [1] turned out to be 35.9 µM; in assay [2], 2.81 µM; in assay [4] it was 2.67 µM; in assay [6], 3.32 µM; in assay [10], 4.86 µM; in assay [7], 33.9 µM. The concentration for total growth inhibition (TGI) in [8] came to 1.69 µM.
Take `O=C(Oc1ccc(Cl)cc1Cl)c1ccccc1Nc1ccnc(C(F)(F)F)c1`: the GI50 in assay [2] is 18.1 µM; in assay [4], 15.6 µM; in [5], 3.51 µM; in assay [6] it was 6.63 µM; in [10], 3.66 µM; in assay [7] it was 10.6 µM. The GI50 in [8] was 1.93 µM. Besides, the TGI in [2] is above 100 µM; in assay [4], 37.2 µM; in assay [5] it was 13.6 µM; in assay [6], above 100 µM; in [10], 11.7 µM; in assay [7], 26 µM. In assay [8], the concentration for total growth inhibition (TGI) is 5.87 µM.
For the compound `O=C(c1ccccc1)C(c1ccccc1)C1(O)C(=O)Nc2c(Cl)cc(Cl)cc21` (configuration not stated), the TGI in [1] was 34.1 µM; in [2] it was 38.4 µM; in assay [3], 28 µM; in assay [4] it was 33.1 µM; in [5], 35.5 µM; in [6], 39.5 µM. Besides, the values for the TGI in [7], in assay [8] and in assay [9] were 35 µM, 29.8 µM and 33.7 µM, respectively.
For the compound `COc1ccc2c(c1)[nH]c(=O)c1c3cc(C)c(C)cc3cn21`, the GI50 was below 0.01 µM in assay [1]; below 0.0119 µM in assay [2]; 0.032 µM in assay [3]; below 0.01 µM in assay [4]; 0.0305 µM in assay [5]; below 0.01 µM in [6]. Further, the GI50 in [7] is 12.8 µM; in assay [8] it was below 0.0233 µM; in assay [9], below 0.0134 µM. In addition, the TGI is 1.91 µM in assay [1]; 1.72 µM in [2]; 3.95 µM in assay [3]; 0.392 µM in assay [5]; below 0.013 µM in assay [6]; 26.4 µM in assay [7]. In addition, the results for the TGI in [8] and in assay [9] were 1.6 µM and 0.0248 µM, respectively.
For the compound `Cc1nc2c(nc1C)C(=O)c1cc(O)ccc1C2=O`, the TGI in assay [1] is above 100 µM; in assay [2], above 100 µM; in assay [3], above 100 µM; in assay [4], above 100 µM; in [5], above 100 µM; in assay [6], above 67.3 µM. For the same compound, the figures for the TGI in assay [7], in [8] and in assay [9] were above 78 µM, above 100 µM and 45.2 µM, respectively.
Turning to `ClCc1cccc(Cn2cnc3c(Cl)ncnc32)c1`, the GI50 was 2.23 µM in assay [1]; 14.4 µM in [2]; 2.35 µM in assay [3]; 3.25 µM in [4]; 1.92 µM in [5]; 2.43 µM in assay [10]. In addition, the GI50 in [7] is 20.2 µM; in [8], 6.17 µM; in [9] it was 3.09 µM. The TGI in assay [1] was 5.69 µM; in assay [2], 35.9 µM; in [3] it was 5.69 µM; in [4], 8.68 µM; in [5] it was 4.07 µM; in [10], 7.62 µM. For the same compound, the TGI in [7] is 37.1 µM; in assay [8], 19.7 µM; in assay [9] it was 10.5 µM.
As for `O=C1CC(O)C=C1Nc1ccc(Cl)cc1` (configuration not stated), the TGI is above 100 µM in [1]; above 100 µM in assay [2]; above 100 µM in assay [3]; above 100 µM in assay [4]; above 100 µM in assay [5]; 95.6 µM in assay [6]. Further, the TGI in [7] was above 100 µM; in assay [8], above 100 µM; in assay [9], 22.3 µM.
Consider `O=C(CNc1nncs1)NO`, for which the TGI in [1], in assay [2], in assay [3], in assay [4], in assay [5] and in assay [6] was above 100 µM in each case. Further, the total growth inhibition concentration (TGI) in assay [7], in assay [8] and in assay [9] was above 100 µM throughout.
Turning to `CC1OC(OCC2OC(Oc3c(-c4ccc(O)cc4)oc4cc(O)cc(O)c4c3=O)C(OC3OCC(O)(CO)C3O)C(O)C2O)C(O)C(O)C1O` (configuration not stated), the TGI is above 100 µM in [1]; above 100 µM in assay [2]; above 100 µM in assay [3]; above 100 µM in assay [4]; above 100 µM in [5]; 38.7 µM in assay [6]. For the same compound, the TGI in assay [7], in assay [8] and in assay [9] was above 100 µM in each case.

One may read the TGI as the concentration at which net growth stops. Low values mean more potent growth arrest, high ones less potent growth arrest. The GI50 is the concentration giving 50% growth inhibition.
